Source: patent publication US11773157B2, “Compositions and methods for treating and preventing Staphylococcus aureus infections” (priority 2014, dated 2023)

Tested on: MRSA (NR 46223)
Assay: In vivo survival, MRSA bacteremia with vancomycin co-treatment
Set-up: species or system Balb/C mice
Details: 0.5 mg vancomycin i.p. alone (0 mg PA8-G3), two hours prior to infection; 3×10^7 CFU i.v.; PBS 10%
Method: Referring to FIGS. 8A-C, at day 14, only 10% of the PBS treated mice survived, 30% of the vancomycin treated mice survived. […] Statistical analysis of the animal data was conducted using Kaplan-Meier Survival Analysis with a Mantel-Cox (logrank) test.

CN[C@H](CC(C)C)C(=O)N[C@H]1C(=O)N[C@@H](CC(N)=O)C(=O)N[C@H]2C(=O)N[C@H]3C(=O)N[C@H](C(=O)N[C@H](C(=O)O)c4cc(O)cc(O)c4-c4cc3ccc4O)[C@H](O)c3ccc(c(Cl)c3)Oc3cc2cc(c3O[C@@H]2O[C@H](CO)[C@@H](O)[C@H](O)[C@H]2O[C@H]2C[C@](C)(N)[C@H](O)[C@H](C)O2)Oc2ccc(cc2Cl)[C@H]1O [vancomycin, reference compound]
mice survived at day 14: 30%
